# System: normal human dermal fibroblasts (NHDF)
# Assay: Procollagen I assay (ELISA) in culture medium of normal human dermal fibroblasts exposed to UVA, formulas spread on PMMA plates placed over the cells
# Assay type: cell-based
# Settings: for Mean procollagen 1 (normalized by Cyquant signal and relative to the unexposed Control): 48 hours after last exposure
# Method: The efficacy of a combination in accordance with the invention and outside the invention is tested by assaying procollagen 1 in a culture medium of normal human dermal fibroblasts exposed to UVA.
# • Normal human dermal fibroblasts (NHDF) obtained from a mammary plasty. • Culture: 37° C., 5% CO2. • Culture medium and test medium: MEM (Gibco 21090-022) containing 10% foetal calf serum (FCS) (Gibco 10270-098), 2 mM L-glutamine (Gibco 25030-024), 1 mM sodium pyruvate (Gibco 11360-039), 1× non-essential amino acids (Gibco 11140-035), 250 ng/ml amphotericin B (Gibco 15290-018) and penicillin/streptomycin 20 U/20 […].
# The normal human dermal fibroblasts were seeded in complete MEM medium and incubated for 72 h at 37° C. and 5% CO2.
# The cells are then exposed for 3 consecutive days to a dose of 25 J/cm^2 of total UVA using an Oriel solar simulator fitted with a WG335 filter. Depending on the conditions, a PMMA plate to which the formula comprising the screening agents according to the invention or outside the invention or the Placebo formula is applied is placed over the cells during exposure. After each exposure, the cells are treated or not with ascorbic acid (10 μM) diluted in the culture medium. The cells are then incubated at 37° C., 5% CO2. 48 hours after the last exposure, a cell viability test (XTT Roche cat. 11465015001) is performed, and the number of cells in each well is evaluated by means of a Cyquant assay (Molecular Probes C7026). The media are collected and a procollagen I assay is performed by ELISA (Abcam ab210966). Each experimental condition is performed in duplicate or triplicate and at least three independent experiments are performed.
# [1] = 25 J/cm^2 total UVA on 3 consecutive days, formula 1.3 mg/cm^2 on PMMA plate over the cells, ascorbic acid 10 μM where given
structure (smiles),measurement,setting,value
"O=C1O[C@H]([C@@H](O)CO)C(O)=C1O [VitC, ascorbic acid]",relative % relative to the control 0 J,"0 J/cm^2 (unexposed), ascorbic acid 10 μM",+260.5%
same,Mean procollagen 1 (normalized by Cyquant signal and relative to the unexposed Control),"0 J/cm^2 (unexposed), ascorbic acid 10 μM, unexposed Control = 100",360.5
same,relative % relative to the control 0 J,[1],+29.7%
same,Mean procollagen 1 (normalized by Cyquant signal and relative to the unexposed Control),[1],129.7
same,secretion of procollagen 1 by the fibroblasts,"ascorbic acid tested at 10 μM, result in words",significantly increased
same,ability of ascorbic acid to induce procollagen 1 secretion,"effect of UVA, result in words",significantly reduced
